Measurements published in patent US12329738B2, “Urolithin A and a composition containing same for external use in inflammations of various etiologies” (WARSZAWSKI UNIWERSYTET MEDYCZNY, priority 2018, dated 2025).

Experiments:
[1] = tested on: NHDF fibroblasts (human normal skin fibroblasts); conditions: comparative studies by the inventors
Description: NHDF fibroblasts (human normal skin fibroblasts) were cultured in the DMEM medium supplemented with 10% FBS and a mixture of antibiotics—penicillin and streptomycin at 37° C., 5% CO2. […] After incubation with the compounds, the cells were washed twice with warm medium. The effect on cell viability was assessed using a standard MTT test.

mRNA for TNF-alpha = test: TNF-alpha mRNA expression in THP-1 derived macrophages (real time PCR); assay type: cell-based, human; conditions: 40 μM; LPS stimulation; FIG. 14
Description: (§1) Monocytes of the THP-1 line were cultured in RPMI 1640 medium supplemented with 10% FBS and 2 mM glutamine. For transformation of monocytes into macrophages, the cells were treated with 12.5 ng/mL PMA (phorbol 12-myristate 13-acetate) for 48 hours, then washed and incubated for 24 hours in a culture medium without PMA. After this time, urolithin A, urolithin B, iso-urolithin A and the corresponding glucuronides (GUA, GUB and GiUA) were added to the cells at a concentration of 40 μM. After 1 hour of incubation with the compounds, the cells were stimulated with LPS from Escherichia coli (10 ng/mL).
(§2) To assess the level of TNF-alpha production, the cells were incubated for 6 hours, to assess the expression of mRNA for TNF-alpha, the cells were incubated for 24 hours, to assess the effect on ERK1/2 phosphorylation, the cells were incubated for 35 minutes.
(§3) The level of TNF-alpha in the culture medium was determined using the immunochemical ELISA method (BD biosciences). Evaluation of the expression of mRNA for TNF-alpha was performed using real time PCR. After 24 hours of incubation, RNA was isolated using NucleoSpin RNA Clean-up (Macherey-Nagel). The amount and quality of isolated RNA was determined using 2100 Bioanalyzer (Agilent Technologies). The expression level of mRNA for TNF-α was determined using Brilliant II SYBR Green QPCR Kit and Aria Mx Real-Time PCR thermocycler (Agilent Technologies). The following were used as primers for TNF-alpha: forward: 5′-[…]-3′, reverse: 5′-[…]-3′. Beta-actin (ACTB) was used as the housekeeping gene; primer forward: 5′-[…]-3′, reverse: 5′-[…]-3′).
(§4) The obtained results of experiments on in vitro models were analyzed using the Statistica 13 program (StatSoft, Inc., Tulsa, OK, USA) and presented as mean values±SEM. Statistical significance was set at P≤0.05. The results with established normal distribution in the D'Agostin and Pearson test were prepared using analysis of variance (ANOVA). Parametric post-hoc analysis was performed using Dunnett's test.

TNF-alpha [2] = test: TNF-alpha production by THP-1 derived macrophages (ELISA); assay type: cell-based, human; conditions: 40 μM; LPS stimulation; FIG. 13
Description: as §1, §2, §3, §4

tyrosinase = biological target: T1, tyrosinase (Mus musculus, UniProt P11344); conditions: B16 melanoma cells; cited from earlier work
T1 sequence (P11344 19-533): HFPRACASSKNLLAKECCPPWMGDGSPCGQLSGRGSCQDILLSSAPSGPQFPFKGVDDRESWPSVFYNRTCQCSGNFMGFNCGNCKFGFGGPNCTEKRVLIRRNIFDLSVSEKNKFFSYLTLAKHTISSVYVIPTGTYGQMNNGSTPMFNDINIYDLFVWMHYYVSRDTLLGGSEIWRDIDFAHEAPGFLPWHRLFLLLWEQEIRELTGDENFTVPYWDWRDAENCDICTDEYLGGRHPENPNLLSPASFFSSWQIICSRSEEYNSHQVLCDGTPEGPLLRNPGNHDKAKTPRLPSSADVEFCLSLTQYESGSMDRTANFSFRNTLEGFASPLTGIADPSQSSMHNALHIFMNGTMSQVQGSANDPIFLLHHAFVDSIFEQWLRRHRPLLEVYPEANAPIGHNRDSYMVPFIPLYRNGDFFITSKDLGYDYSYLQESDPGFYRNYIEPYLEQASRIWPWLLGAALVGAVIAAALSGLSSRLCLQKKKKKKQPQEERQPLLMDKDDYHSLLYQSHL

TNF-alpha [3] = test: TNF-alpha production by macrophages from human peripheral blood monocytes (ELISA); assay type: cell-based; conditions: 40 μM; LPS 100 ng/mL, 24 h; FIG. 16
Description: Monocytes were isolated from peripheral human blood by a standard method using dextran sedimentation and Ficoll Hypaque gradient centrifugation. After isolation, monocytes were suspended in RPMI 1640 medium supplemented with L-glutamine, HEPES, streptomycin, amphotericin and gentamicin, and 20% autologous serum. Cell culture was carried out under these conditions for 7 days. […] After 24h, TNF-alpha level in the medium was determined using the immunochemical ELISA method (BD biosciences). The obtained results of experiments on in vitro models were analyzed using the Statistica 13 program (StatSoft, Inc., Tulsa, OK, USA) and presented as mean values±SEM. Statistical significance was set at P≤0.05. The results with established normal distribution in the D'Agostin and Pearson test were prepared using analysis of variance (ANOVA). Parametric post-hoc analysis was performed using Dunnett's test.

ERK1/2 = ERK1/2 phosphorylation in THP-1 derived macrophages (Western blotting); assay type: cell-based, human; conditions: 40 μM; LPS 10 ng/mL, 35 min; FIG. 15
Description: Monocytes of the THP-1 line were cultured in RPMI 1640 medium supplemented with 10% FBS and 2 mM glutamine. For transformation of monocytes into macrophages, the cells were treated with 12.5 ng/mL PMA (phorbol 12-myristate 13-acetate) for 48 hours, then washed and incubated for 24 hours in a culture medium without PMA. After this time, urolithin A, urolithin B, iso-urolithin A and the corresponding glucuronides (GUA, GUB and GiUA) were added to the cells at a concentration of 40 μM. After 1 hour of incubation with the compounds, the cells were stimulated with LPS from Escherichia coli (10 ng/mL). To assess the level of TNF-alpha production, the cells were incubated for 6 hours, to assess the expression of mRNA for TNF-alpha, the cells were incubated for 24 hours, to assess the effect on ERK1/2 phosphorylation, the cells were incubated for 35 minutes. […] The obtained results of experiments on in vitro models were analyzed using the Statistica 13 program (StatSoft, Inc., Tulsa, OK, USA) and presented as mean values±SEM. Statistical significance was set at P≤0.05. The results with established normal distribution in the D'Agostin and Pearson test were prepared using analysis of variance (ANOVA). Parametric post-hoc analysis was performed using Dunnett's test.

SMILES	Antiproliferative activity on human skin fibroblast cells [1]	TNF-alpha mRNA expression in THP-1 derived macrophages (mRNA for TNF-alpha)	TNF-alpha production by THP-1 derived macrophages (TNF-alpha [2])	Tyrosinase activity (depigmentation) (tyrosinase)	Inhibition of TNF-alpha production by macrophages from human peripheral blood monocytes (TNF-alpha [3])	ERK1/2 kinase phosphorylation in THP-1 derived macrophages (ERK1/2)
CC(=O)Oc1ccc2c(c1)oc(=O)c1cc(O)ccc12 [3-acetyl-urolithin A]	neither urolithin A, nor 8-acetyl-urolithin A, nor 3-acetyl-urolithin A showed antiproliferative activity	–	–	–	–	–
CC(=O)Oc1ccc2c(c1)c(=O)oc1cc(O)ccc12 [8-acetyl-urolithin A]	neither urolithin A, nor 8-acetyl-urolithin A, nor 3-acetyl-urolithin A showed antiproliferative activity	–	–	–	–	–
O=c1oc2cc(O)ccc2c2ccccc12 [urolithin B]	–	inactive	did not show any activity	suppressing tyrosinase activity	inactive	did not exhibit such activity
